# Reference: patent US8962842B2, “2-pyridone antimicrobial compositions” (priority 2010, dated 2015)
# Read-outs that look alike come from different tables or passages of the source.
# What was measured:
# [1] = system: Escherichia coli (6 strains); test: MIC range, broader panel of Quotient Bioresearch strains (Table 4); assay type: cell-based; conditions: for MIC50: read-out: MIC Range Median, Escherichia coli (6 strains)
# [2] = system: Klebsiella pneumonia (4 strains); test: as above; assay type: cell-based; conditions: Klebsiella pneumoniae; for MIC50: read-out: MIC Range Median, Klebsiella pneumonia (4 strains)
# [3] = system: Pseudomonas aeruginosa (12 strains); test: as above; assay type: cell-based; conditions: for MIC50: read-out: MIC Range Median, Pseudomonas aeruginosa (12 strains)
# [4] = system: Burkholderia cepacia (5 strains); test: as above; assay type: cell-based; conditions: for MIC50: read-out: MIC Range Median, Burkholderia cepacia (5 strains)
# [5] = system: Haemophilus influenza (5 strains); test: as above; assay type: cell-based, Haemophilus influenzae; conditions: for MIC50: 16 h, Median of the strain panel
# [6] = system: Acinetobacter baumannii (12 strains); test: as above; assay type: cell-based; conditions: for MIC50: read-out: MIC Range Median, Acinetobacter baumannii (12 strains)
# [7] = system: Staphylococcus aureus (16 strains); test: MIC range, broader panel of Quotient Bioresearch strains (Table 3); conditions: for MIC50: read-out: MIC Range Median, Staphylococcus aureus (16 strains)
# [8] = system: Enterococcus faecalis (5 strains); test: as above; conditions: for MIC50: read-out: MIC Range Median, Enterococcus faecalis (5 strains)
# [9] = system: Enterococcus faecium (3 strains); test: as above; conditions: for MIC50: read-out: MIC Range Median, Enterococcus faecium (3 strains)
# [10] = system: Streptococcus pneumonia (5 strains); test: as above; conditions: Streptococcus pneumoniae; for MIC50: read-out: MIC Range Median, Streptococcus pneumonia (5 strains)
# [11] = system: Streptococcus pyogenes (4 strains); test: as above; conditions: for MIC50: read-out: MIC Range Median, Streptococcus pyogenes (4 strains)
# [12] = system: Group C Streptococcus (4 strains); test: as above; conditions: for MIC50: read-out: MIC Range Median, Group C Streptococcus (4 strains)
# [13] = read-out: MIC Range High, Escherichia coli (6 strains)
# [14] = read-out: MIC Range Low, Escherichia coli (6 strains)
# [15] = read-out: MIC Range High, Klebsiella pneumonia (4 strains)
# [16] = read-out: MIC Range Low, Klebsiella pneumonia (4 strains)
# [17] = read-out: MIC Range High, Pseudomonas aeruginosa (12 strains)
# [18] = read-out: MIC Range High, Burkholderia cepacia (5 strains)
# [19] = read-out: MIC Range Low, Burkholderia cepacia (5 strains)
# [20] = High of the strain panel, read-out: MIC Range High, Haemophilus influenza (5 strains)
# [21] = Low of the strain panel, read-out: MIC Range Low, Haemophilus influenza (5 strains)
# [22] = read-out: MIC Range High, Acinetobacter baumannii (12 strains)
# [23] = read-out: MIC Range Low, Acinetobacter baumannii (12 strains)
# [24] = read-out: MIC Range High, Staphylococcus aureus (16 strains)
# [25] = read-out: MIC Range Low, Staphylococcus aureus (16 strains)
# [26] = read-out: MIC Range High, Enterococcus faecalis (5 strains)
# [27] = read-out: MIC Range Low, Enterococcus faecalis (5 strains)
# [28] = read-out: MIC Range High, Enterococcus faecium (3 strains)
# [29] = read-out: MIC Range Low, Enterococcus faecium (3 strains)
# [30] = read-out: MIC Range High, Streptococcus pneumonia (5 strains)
# [31] = read-out: MIC Range Low, Streptococcus pneumonia (5 strains)
# [32] = read-out: MIC Range High, Streptococcus pyogenes (4 strains)
# [33] = read-out: MIC Range Low, Streptococcus pyogenes (4 strains)
# [34] = read-out: MIC Range High, Group C Streptococcus (4 strains)
# [35] = read-out: MIC Range Low, Group C Streptococcus (4 strains)
# [36] = read-out: MIC Range Low, Pseudomonas aeruginosa (12 strains)
Structure (SMILES),"MIC [4, 18]","MIC [4, 19]",MIC50 [4],MIC50 [5],"MIC [5, 20]","MIC [5, 21]","MIC [7, 24]","MIC [7, 25]",MIC50 [7],"MIC [8, 26]","MIC [8, 27]",MIC50 [8],"MIC [9, 28]","MIC [9, 29]",MIC50 [9],"MIC [10, 30]","MIC [10, 31]",MIC50 [10],"MIC [11, 32]","MIC [11, 33]",other results
"Cc1c(-c2ccc(CN)cc2)ccn2c(=O)c(C(=O)[O-])cc(C3CC3)c12.[K+] [Example 31 K salt, potassium 8-(4-(amino-methyl)-phenyl)-1-cyclopropyl-9-methyl-4-oxo-4H-quinolizine-3-carboxylate]",1 µg/mL,0.12 µg/mL,0.5 µg/mL,≤ 0.015 µg/mL,≤ 0.015 µg/mL,≤ 0.015 µg/mL,2 µg/mL,≤ 0.015 µg/mL,0.5 µg/mL,4 µg/mL,0.06 µg/mL,0.12 µg/mL,8 µg/mL,0.5 µg/mL,4 µg/mL,0.25 µg/mL,0.06 µg/mL,0.12 µg/mL,0.25 µg/mL,0.06 µg/mL,"MIC [1, 13]: 32 µg/mL; MIC [1, 14]: ≤ 0.015 µg/mL; MIC50 [1]: 8 µg/mL; MIC [2, 15]: 32 µg/mL; MIC [2, 16]: 0.03 µg/mL; MIC50 [2]: 9 µg/mL; MIC [3, 17]: > 32 µg/mL; MIC50 [3]: 8 µg/mL; MIC [6, 22]: > 32 µg/mL; MIC [6, 23]: 0.03 µg/mL; MIC50 [6]: 8 µg/mL; MIC50 [11]: 0.09 µg/mL; MIC [12, 34]: 0.12 µg/mL; MIC [12, 35]: 0.06 µg/mL; MIC50 [12]: 0.09 µg/mL"
"Cc1c(-c2ccc(N)c(F)c2)c(F)cn2c(=O)c(C(=O)[O-])cc(C3CC3)c12.[K+] [Example 1 K salt, potassium 8-(4-amino-3-fluoro-phenyl)-1-cyclopropyl-7-fluoro-9-methyl-4-oxo-4H-quinolizine-3-carboxylate]",2 µg/mL,0.5 µg/mL,1 µg/mL,≤ 0.015 µg/mL,0.03 µg/mL,≤ 0.015 µg/mL,0.5 µg/mL,≤ 0.015 µg/mL,0.5 µg/mL,4 µg/mL,0.12 µg/mL,0.12 µg/mL,8 µg/mL,1 µg/mL,2 µg/mL,0.5 µg/mL,0.5 µg/mL,0.5 µg/mL,1 µg/mL,0.5 µg/mL,"MIC [1, 13]: > 32 µg/mL; MIC [1, 14]: 0.06 µg/mL; MIC50 [1]: > 32 µg/mL; MIC [2, 15]: > 32 µg/mL; MIC [2, 16]: 0.5 µg/mL; MIC50 [2]: 16 µg/mL; MIC [3, 17]: 32 µg/mL; MIC [3, 36]: 2 µg/mL; MIC50 [3]: 16 µg/mL; MIC [6, 22]: > 32 µg/mL; MIC [6, 23]: 0.25 µg/mL; MIC50 [6]: 20 µg/mL; MIC50 [11]: 0.5 µg/mL; MIC [12, 34]: 0.5 µg/mL; MIC [12, 35]: 0.12 µg/mL; MIC50 [12]: 0.25 µg/mL"
"Cc1c(-c2ccc(C(N)=O)cc2)c(F)cn2c(=O)c(C(=O)[O-])cc(C3CC3)c12.[K+] [Example 6 K salt, potassium 8-(4-carbamoyl-phenyl)-1-cyclopropyl-7-fluoro-9-methyl-4-oxo-4H-quinolizine-3-carboxylate]",4 µg/mL,1 µg/mL,2 µg/mL,0.03 µg/mL,0.06 µg/mL,0.03 µg/mL,1 µg/mL,0.03 µg/mL,0.5 µg/mL,4 µg/mL,0.12 µg/mL,0.25 µg/mL,8 µg/mL,1 µg/mL,2 µg/mL,0.25 µg/mL,0.25 µg/mL,0.25 µg/mL,0.25 µg/mL,0.12 µg/mL,"MIC [1, 13]: > 32 µg/mL; MIC [1, 14]: 0.25 µg/mL; MIC50 [1]: > 32 µg/mL; MIC [2, 15]: > 32 µg/mL; MIC [2, 16]: 1 µg/mL; MIC50 [2]: > 32 µg/mL; MIC [3, 17]: > 32 µg/mL; MIC [3, 36]: 8 µg/mL; MIC50 [3]: > 32 µg/mL; MIC [6, 22]: > 32 µg/mL; MIC [6, 23]: 1 µg/mL; MIC50 [6]: > 32 µg/mL; MIC50 [11]: 0.12 µg/mL; MIC [12, 34]: 0.12 µg/mL; MIC [12, 35]: 0.06 µg/mL; MIC50 [12]: 0.12 µg/mL"
"Cc1c(C2=CCNCC2)ccn2c(=O)c(C(=O)O)cc(C3CC3)c12 [Example 42, 1-cyclopropyl-9-methyl-4-oxo-8-(1,2,3,6-tetrahydropyridin-4-yl)-4H-quinolizine-3-carboxylic acid]",2 µg/mL,2 µg/mL,2 µg/mL,0.06 µg/mL,0.06 µg/mL,0.03 µg/mL,32 µg/mL,0.5 µg/mL,16.2 µg/mL,32 µg/mL,4 µg/mL,4 µg/mL,> 32 µg/mL,16 µg/mL,> 32 µg/mL,8 µg/mL,4 µg/mL,4 µg/mL,8 µg/mL,2 µg/mL,"MIC ([1]; High of the strain panel, read-out: MIC Range High, Escherichia coli (6 strains)): > 32 µg/mL; MIC ([1]; Low of the strain panel, read-out: MIC Range Low, Escherichia coli (6 strains)): 0.06 µg/mL; MIC50 ([1]; Median of the strain panel): 32 µg/mL; MIC ([2]; High of the strain panel, read-out: MIC Range High, Klebsiella pneumonia (4 strains)): > 32 µg/mL; MIC ([2]; Low of the strain panel, read-out: MIC Range Low, Klebsiella pneumonia (4 strains)): 0.12 µg/mL; MIC50 ([2]; Median of the strain panel): 8 µg/mL; MIC ([3]; High of the strain panel, read-out: MIC Range High, Pseudomonas aeruginosa (12 strains)): > 32 µg/mL; MIC ([3]; Low of the strain panel, read-out: MIC Range Low, Pseudomonas aeruginosa (12 strains)): 1 µg/mL; MIC50 ([3]; Median of the strain panel): 32 µg/mL; MIC ([6]; High of the strain panel, read-out: MIC Range High, Acinetobacter baumannii (12 strains)): > 32 µg/mL; MIC ([6]; Low of the strain panel, read-out: MIC Range Low, Acinetobacter baumannii (12 strains)): 0.25 µg/mL; MIC50 ([6]; Median of the strain panel): > 32 µg/mL; MIC50 [11]: 3 µg/mL; MIC [12, 34]: 4 µg/mL; MIC [12, 35]: 2 µg/mL; MIC50 [12]: 2 µg/mL"
